The values that follow come from patent US7592457B2 (Korea Research Institute of Chemical Technology, priority 2004, dated 2009).

Where two headings read alike, the source gives them in different places.

Data set [1] has as its target T1, human serotonin 5-HT6 receptor (Homo sapiens, UniProt P50406).
T1 construct: made in house; host or cells: Sf21 insect cells (pBacPAK8 baculovirus vector)
As to the kind of experiment: [3H]LSD binding at cloned 5-HT6 receptors. The settings on record: for inhibition at 10 µM: read-out: Binding affinity (Inhibition rate % at 10 μM) 5HT6.

Data set [2] deals with D1 (Homo sapiens, UniProt P21728). Nature of the data set: Radioligand binding for selectivity, D1. The settings on record: read-out: Binding affinity (Inhibition rate % at 10 μM) D1.
Data set [3] has as its target T2, hD2L receptor (Homo sapiens, UniProt P14416).
T2 construct: purchased BioSignal Packard Inc., Montreal, Canada
Nature of the data set: Radioligand binding, dopamine D2 ([3H]spiperone). The settings on record: read-out: Binding affinity (Inhibition rate % at 10 μM) D2. The procedure:
(§1) The radioligands used were [^3H] spiperone (for hD2L and hD3 receptors, 1 nM) and [^3H] YM-09151-2 (for hD4.2 receptor, 0.06 nM). Radioligand bindings were performed by the protocols provided by the supplier of receptor membranes (BioSignal Packard Inc., Montreal, Canada). Briefly, the buffer used in D2 or D3 receptor binding assay was 50 mM Tris-HCl (pH 7.4), 10 mM MgCl2, 1 mM EDTA, or 50 mM Tris-HCl (pH 7.4), 5 mM MgCl2, 5 mM EDTA, 5 mM KCl, 1.5 mM CaCl2, 120 mM NaCl, respectively. In [^3H] YM-09151-2 receptor binding assays, the buffer containing 50 mM Tris-HCl (pH 7.4), 5 mM MgCl2, 5 mM EDTA, 5 mM KCl and 1.5 mM CaCl2 was used. Nonspecific binding was determined with haloperidol (10 μM) or clozapine (10 μM) for D2 and D3, and D4 receptors, respectively. Competition binding studies were carried out with 7-8 concentrations of the test compound run in duplicate tubes, and isotherms from three assays were calculated by computerized nonlinear regression analysis (GraphPad Prism Program, San Diego, […]) to yield median inhibitory concentration (IC50) values.

For data set [4], the target named is T3, hD3 receptor (Homo sapiens, UniProt P35462).
T3 construct: purchased BioSignal Packard Inc., Montreal, Canada
Nature of the data set: Radioligand binding, dopamine D3 ([3H]spiperone). The settings on record: read-out: Binding affinity (Inhibition rate % at 10 μM) D3. The protocol: as §1

Data set [5] addresses T4, hD4.2 receptor (Homo sapiens, UniProt P21917, DEL265-296).
T4 construct: purchased BioSignal Packard Inc., Montreal, Canada
T4 sequence (P21917 with tags, fused parts or gaps DEL265-296): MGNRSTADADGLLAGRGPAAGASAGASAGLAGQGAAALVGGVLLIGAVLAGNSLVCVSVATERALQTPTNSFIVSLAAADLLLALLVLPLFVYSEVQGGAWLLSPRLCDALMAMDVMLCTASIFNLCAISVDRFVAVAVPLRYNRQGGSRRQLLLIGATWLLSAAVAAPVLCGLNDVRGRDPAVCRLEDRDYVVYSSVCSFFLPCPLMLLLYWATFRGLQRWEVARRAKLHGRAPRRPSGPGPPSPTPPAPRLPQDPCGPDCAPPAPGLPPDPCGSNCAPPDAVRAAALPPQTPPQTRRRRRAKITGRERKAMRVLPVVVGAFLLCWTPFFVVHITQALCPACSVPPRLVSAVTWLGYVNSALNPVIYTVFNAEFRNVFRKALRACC
Nature of the data set: Radioligand binding, dopamine D4 ([3H]YM-09151-2). The settings on record: read-out: Binding affinity (Inhibition rate % at 10 μM) D4. The protocol:
as §1

Data set [6] deals with T5, 5-HT1a (Homo sapiens, UniProt P08908).
T5 construct: purchased Euroscreen/BioSignal Packard Inc
T5 sequence (P08908 1-422): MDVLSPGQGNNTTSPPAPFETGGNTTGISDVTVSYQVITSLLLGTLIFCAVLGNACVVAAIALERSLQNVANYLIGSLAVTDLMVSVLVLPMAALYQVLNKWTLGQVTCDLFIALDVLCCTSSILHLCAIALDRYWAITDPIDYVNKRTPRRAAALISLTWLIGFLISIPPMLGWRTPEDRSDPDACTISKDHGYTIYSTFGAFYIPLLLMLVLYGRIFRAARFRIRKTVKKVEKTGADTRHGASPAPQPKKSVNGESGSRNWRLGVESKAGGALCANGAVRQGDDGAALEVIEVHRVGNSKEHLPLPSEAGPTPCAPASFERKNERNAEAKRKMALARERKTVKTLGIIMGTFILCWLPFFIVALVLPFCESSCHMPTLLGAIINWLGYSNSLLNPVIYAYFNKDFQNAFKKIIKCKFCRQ
As to the kind of experiment: Radioligand binding, 5-HT1a ([3H]8-OH-DPAT). The settings on record: read-out: Binding affinity (Inhibition rate % at 10 μM) 5HT1a. The protocol: (§2) Radioligand bindings were performed according to the test method provided by the supplier of receptor membrane (Euroscreen/BioSignal Packard Inc.).

In data set [7] the target is T6, 5-HT2a (Homo sapiens, UniProt P28223).
T6 construct: purchased Euroscreen/BioSignal Packard Inc
As to the kind of experiment: Radioligand binding, 5-HT2a ([3H]Ketanserin). The settings on record: read-out: Binding affinity (Inhibition rate % at 10 μM) 5HT2a. The protocol:
as §2

Data set [8] addresses T7, 5-HT2c (Homo sapiens, UniProt P28335).
T7 construct: purchased Euroscreen/BioSignal Packard Inc
T7 sequence (P28335 33-458): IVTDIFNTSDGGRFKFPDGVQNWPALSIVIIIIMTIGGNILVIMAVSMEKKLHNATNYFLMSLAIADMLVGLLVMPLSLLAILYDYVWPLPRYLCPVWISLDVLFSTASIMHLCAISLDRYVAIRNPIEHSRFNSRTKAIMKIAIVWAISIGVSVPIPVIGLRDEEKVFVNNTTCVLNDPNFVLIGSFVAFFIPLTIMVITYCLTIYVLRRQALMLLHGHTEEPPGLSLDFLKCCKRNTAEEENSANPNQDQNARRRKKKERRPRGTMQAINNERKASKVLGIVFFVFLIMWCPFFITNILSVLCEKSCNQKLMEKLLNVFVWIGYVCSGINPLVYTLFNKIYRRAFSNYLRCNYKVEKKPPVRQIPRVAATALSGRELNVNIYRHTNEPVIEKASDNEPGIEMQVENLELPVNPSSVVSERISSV
Nature of the data set: Radioligand binding, 5-HT2c ([3H]Mesulergine). The settings on record: read-out: Binding affinity (Inhibition rate % at 10 μM) 5HT2c. The procedure:
as §2

The target of data set [9] is T8, 5-HT7 (Homo sapiens, UniProt P34969).
T8 construct: purchased Euroscreen/BioSignal Packard Inc
As to the kind of experiment: Radioligand binding, 5-HT7 ([3H]LSD). The settings on record: read-out: Binding affinity (Inhibition rate % at 10 μM) 5HT7. The protocol:
as §2

[10] abbreviates: [3H]LSD 1.87 nM, cloned receptor membranes, 37° C., 60 min, read-out: IC50.

T1 sequence (P50406 whole entry): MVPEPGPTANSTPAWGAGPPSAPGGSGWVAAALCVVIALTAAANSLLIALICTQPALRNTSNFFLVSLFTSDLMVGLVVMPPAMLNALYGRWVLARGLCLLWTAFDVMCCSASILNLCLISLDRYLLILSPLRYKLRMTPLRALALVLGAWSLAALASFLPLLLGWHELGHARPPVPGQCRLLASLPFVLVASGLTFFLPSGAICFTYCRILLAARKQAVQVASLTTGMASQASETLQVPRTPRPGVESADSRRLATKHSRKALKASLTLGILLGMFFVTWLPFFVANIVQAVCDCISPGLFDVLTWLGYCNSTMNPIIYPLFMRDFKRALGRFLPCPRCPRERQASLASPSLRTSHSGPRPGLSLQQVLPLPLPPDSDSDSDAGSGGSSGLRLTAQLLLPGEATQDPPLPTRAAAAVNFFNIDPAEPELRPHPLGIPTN
T2 sequence (P14416 whole entry): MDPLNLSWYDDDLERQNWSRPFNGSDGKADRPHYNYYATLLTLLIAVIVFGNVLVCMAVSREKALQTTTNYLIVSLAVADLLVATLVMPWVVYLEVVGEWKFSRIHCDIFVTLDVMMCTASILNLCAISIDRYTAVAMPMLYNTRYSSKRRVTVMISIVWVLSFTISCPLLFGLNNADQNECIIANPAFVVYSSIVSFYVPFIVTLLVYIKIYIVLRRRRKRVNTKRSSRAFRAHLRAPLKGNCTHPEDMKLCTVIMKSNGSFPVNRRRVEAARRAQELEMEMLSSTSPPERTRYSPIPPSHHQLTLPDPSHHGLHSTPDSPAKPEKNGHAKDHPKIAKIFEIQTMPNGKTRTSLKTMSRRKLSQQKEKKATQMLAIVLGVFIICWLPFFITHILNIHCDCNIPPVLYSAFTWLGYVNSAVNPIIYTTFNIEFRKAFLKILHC
Chain of D1 (P21728 whole entry): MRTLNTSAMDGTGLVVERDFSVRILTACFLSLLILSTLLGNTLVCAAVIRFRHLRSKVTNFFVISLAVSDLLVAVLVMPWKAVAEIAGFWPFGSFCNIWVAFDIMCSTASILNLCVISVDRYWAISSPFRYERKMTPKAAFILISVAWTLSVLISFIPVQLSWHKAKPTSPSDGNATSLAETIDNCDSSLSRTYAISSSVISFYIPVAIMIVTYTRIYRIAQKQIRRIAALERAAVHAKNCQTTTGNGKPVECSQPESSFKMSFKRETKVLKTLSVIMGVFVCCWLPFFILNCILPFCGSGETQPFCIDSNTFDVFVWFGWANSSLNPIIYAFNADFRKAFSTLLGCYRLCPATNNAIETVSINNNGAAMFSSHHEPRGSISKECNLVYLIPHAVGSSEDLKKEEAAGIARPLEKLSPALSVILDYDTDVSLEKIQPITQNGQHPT
T3 sequence (P35462 whole entry): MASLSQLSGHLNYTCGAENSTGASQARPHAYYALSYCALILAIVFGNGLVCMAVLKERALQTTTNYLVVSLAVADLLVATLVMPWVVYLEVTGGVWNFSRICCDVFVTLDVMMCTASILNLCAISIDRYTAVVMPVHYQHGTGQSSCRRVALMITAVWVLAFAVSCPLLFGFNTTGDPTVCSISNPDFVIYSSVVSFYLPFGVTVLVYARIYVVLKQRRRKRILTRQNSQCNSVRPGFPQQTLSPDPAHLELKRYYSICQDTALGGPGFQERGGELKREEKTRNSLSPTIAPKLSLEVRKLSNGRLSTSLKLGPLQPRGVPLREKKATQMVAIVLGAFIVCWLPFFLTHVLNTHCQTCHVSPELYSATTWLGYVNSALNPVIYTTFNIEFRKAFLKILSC
T8 sequence (P34969 whole entry): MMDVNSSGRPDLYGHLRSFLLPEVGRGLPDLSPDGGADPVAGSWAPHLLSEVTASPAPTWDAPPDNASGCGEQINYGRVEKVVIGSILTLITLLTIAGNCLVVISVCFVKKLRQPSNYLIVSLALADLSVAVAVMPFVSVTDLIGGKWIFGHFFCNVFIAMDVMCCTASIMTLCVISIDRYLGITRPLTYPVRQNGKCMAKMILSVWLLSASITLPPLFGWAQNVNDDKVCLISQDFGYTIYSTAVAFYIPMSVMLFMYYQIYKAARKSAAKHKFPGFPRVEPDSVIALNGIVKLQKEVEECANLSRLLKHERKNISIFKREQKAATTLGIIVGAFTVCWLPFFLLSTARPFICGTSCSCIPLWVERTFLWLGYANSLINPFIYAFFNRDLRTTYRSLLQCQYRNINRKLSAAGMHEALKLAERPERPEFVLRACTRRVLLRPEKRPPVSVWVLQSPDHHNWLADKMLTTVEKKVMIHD
T6 sequence (P28223 whole entry): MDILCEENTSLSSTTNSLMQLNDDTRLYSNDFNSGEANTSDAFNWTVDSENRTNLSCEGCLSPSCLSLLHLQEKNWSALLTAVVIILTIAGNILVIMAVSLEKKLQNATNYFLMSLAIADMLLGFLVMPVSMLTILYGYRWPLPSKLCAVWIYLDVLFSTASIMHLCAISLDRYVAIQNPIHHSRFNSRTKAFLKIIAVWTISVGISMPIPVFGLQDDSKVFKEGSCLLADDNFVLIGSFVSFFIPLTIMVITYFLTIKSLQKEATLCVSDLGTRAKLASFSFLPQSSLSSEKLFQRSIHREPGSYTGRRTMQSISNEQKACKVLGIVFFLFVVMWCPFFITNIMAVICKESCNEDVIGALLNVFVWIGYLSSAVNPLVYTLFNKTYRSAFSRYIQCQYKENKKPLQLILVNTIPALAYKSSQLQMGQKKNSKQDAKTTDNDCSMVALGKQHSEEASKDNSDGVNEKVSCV

As usually defined, the IC50 is the point on the concentration scale where inhibition reaches its midpoint. As usually defined, the inhibition is the share of the control response that was lost under treatment. Broadly, the melting point is the temperature of the solid-liquid transition. `CN1CCN(c2ccc3c(c2)NC(=O)C(C)(c2ccc(N)cc2)C3=O)CC1` (centres unmarked) [Example 50, 3-(4-amino-phenyl)-3-methyl-7-(4-methyl-piperazine-1-yl)-1H-quinoline-2,4-dione]: the melting point lay in the range of 265 to 267 °C. Moreover, the 50% inhibitory concentration (IC50) in data set [1] (setting [10]) was 942 nM. The inhibition at 10 µM in data set [1] came to 74.5%. Moreover, the inhibition at 10 µM in data set [2] amounted to 34.1%. Further, the inhibition at 10 µM in [3] was 8.2%. The inhibition at 10 µM in [4] turned out to be 50.1%. Also, the inhibition at 10 µM in data set [5] worked out at 0%. Further, the inhibition at 10 µM in data set [6] worked out at 6.7%. In [7], the inhibition at 10 µM came out at 21.5%. Moreover, in [8], the inhibition at 10 µM was determined as 15.4%. Besides, the inhibition at 10 µM in [9] is 20.5%.

`CC1(c2ccc(O)c(O)c2)C(=O)Nc2ccccc2C1=O` (centres unmarked) [Example 32, 3-(3,4-dihydroxy-phenyl)-3-methyl-1H-quinoline-2,4-dione] displayed a melting point of 259 to 261 °C. For the same compound, in data set [1] (setting [10]), the IC50 came to 769 nM. For the same compound, the inhibition at 10 µM in data set [1] was determined as 71%. The inhibition at 10 µM in [2] stood at 39%. The inhibition at 10 µM in [3] amounted to 16%. Also, in [4], the inhibition at 10 µM was determined as 12.6%. Moreover, the inhibition at 10 µM in data set [5] was determined as 0%. Further, in [6], the inhibition at 10 µM was 13.5%. In addition, the inhibition at 10 µM in data set [7] came to 26.9%. Besides, the inhibition at 10 µM in data set [8] amounted to 31.9%. Besides, in data set [9], the inhibition at 10 µM stood at 20.1%.

On to `C[C@H](NC(=O)Oc1ccc(C2(C)C(=O)Nc3cc(Cl)cc(Cl)c3C2=O)cc1)c1ccccc1` (some centres unmarked) [Example 25], for which the melting point was 110 to 115 °C. Also, in [1], the IC50 is 816 nM and the inhibition at 10 µM was 69.8%. For the same compound, in data set [2], the inhibition at 10 µM amounted to 54.1%. The inhibition at 10 µM in data set [3] is 8.4%. The inhibition at 10 µM in data set [4] amounted to 10.2%. The inhibition at 10 µM in data set [5] is 0%. Also, the inhibition at 10 µM in [6] is 35.9%. In data set [7], the inhibition at 10 µM turned out to be 16.7%. Moreover, in data set [8], the inhibition at 10 µM was 4%. Besides, in data set [9], the inhibition at 10 µM was 30.6%.

Take `COc1cc(Cl)cc2c1C(=O)C(C)(c1ccccc1)C(=O)N2` (centres unmarked) [Example 6, 7-chloro-5-methoxy-3-methyl-3-phenyl-1H-quinoline-2,4-dione]: the melting point was in the range of 267 to 269 °C. The IC50 in [1] (setting [10]) was found to be 428 nM. Moreover, the inhibition at 10 µM in data set [1] worked out at 68.3%. In addition, the inhibition at 10 µM in data set [2] amounted to 31.1%. The inhibition at 10 µM in data set [3] came out at 29.7%. The inhibition at 10 µM in data set [4] stood at 23%. In [5], the inhibition at 10 µM came out at 1.6%. Moreover, the inhibition at 10 µM in data set [6] was 65.8%. In data set [7], the inhibition at 10 µM was 10.6%. For the same compound, the inhibition at 10 µM in [8] amounted to 13.5%. Further, in [9], the inhibition at 10 µM was found to be 19.5%.

On to `CN(C)c1cc(Cl)c2c(c1)NC(=O)C(C)(c1ccccc1)C2=O` (centres unmarked) [Example 11, 5-chloro-7-dimethylamino-3-methyl-3-phenyl-1H-quinoline-2,4-dione], for which the melting point was 224 to 226 °C. In addition, the IC50 in data set [1] (setting [10]) was 1160 nM. Further, the inhibition at 10 µM in data set [1] was found to be 70.7%. Besides, the inhibition at 10 µM in data set [2] came to 40.5%. The inhibition at 10 µM in data set [3] was found to be 19.3%. The inhibition at 10 µM in data set [4] came to 20.5%. The inhibition at 10 µM in [5] came to 0.4%. In addition, in [6], the inhibition at 10 µM worked out at 49.5%. In addition, the inhibition at 10 µM in data set [7] worked out at 30.4%. In addition, in data set [8], the inhibition at 10 µM amounted to 20%. Moreover, the inhibition at 10 µM in data set [9] was 35.2%.

Regarding `COc1cc(Cl)c2c(c1)NC(=O)C(C)(c1ccccc1)C2=O` (centres unmarked) [Example 5, 5-chloro-7-methoxy-3-methyl-3-phenyl-1H-quinoline-2,4-dione], in data set [1] (setting [10]), the IC50 was 560 nM. Further, the inhibition at 10 µM turned out to be 73.5% in [1]; 10.3% in [2]; 20.5% in [3]; 10.1% in data set [4]; 0% in data set [5]; 18.9% in [6]. In addition, the inhibition at 10 µM was 26.8% in data set [7], 20.5% in [8] and 9.4% in [9].

Turning to `CNc1ccc(C2(C)C(=O)Nc3cc(Cl)cc(Cl)c3C2=O)cc1` (centres unmarked) [Example 39, 5,7-dichloro-3-methyl-3-(4-methylamino-phenyl)-1H-quinoline-2,4-dione], the IC50 in data set [1] (setting [10]) is 418 nM. The inhibition at 10 µM in [1] was found to be 72%; in data set [2], 38.5%; in data set [3] it was 19.8%; in [4] it was 8.4%; in [5], 10.2%; in data set [6], 23%. Moreover, the inhibition at 10 µM in data set [7] was 12.1%; in data set [8], 13.1%; in data set [9], 9.1%.

As for `CC1(c2ccccc2)C(=O)Nc2c(Br)cc(Br)cc2C1=O` (centres unmarked) [Example 10, 6,8-dibromo-3-methyl-3-phenyl-1H-quinoline-2,14-dione], the IC50 in data set [1] (setting [10]) turned out to be 1330 nM. Further, the inhibition at 10 µM in [1] was 73.4%; in data set [2], 13.5%; in data set [3], 11.2%; in data set [4], 19.5%; in [5] it was 0%; in data set [6] it was 0%. The inhibition at 10 µM in data set [7] stood at 29.5%; in data set [8], 16.8%; in data set [9], 20.7%.

For the compound `COc1cc(Br)c2c(c1)NC(=O)C(C)(c1ccccc1)C2=O` (centres unmarked) [Example 7, 5-bromo-7-methoxy-3-methyl-3-phenyl-1H-quinoline-2,4-dione], the IC50 in data set [1] (setting [10]) amounted to 119 nM. Besides, the inhibition at 10 µM came out at 71.1% in data set [1]; 30.5% in data set [2]; 12.8% in data set [3]; 1.5% in data set [4]; 0.8% in [5]; 29.1% in data set [6]. Further, the inhibition at 10 µM in [7] was 25.4%; in data set [8], 30.3%; in [9], 12.4%.
